Article PMC12040169 (PLOS Biology, 2025)

Test: in vitro
Conditions: human, hela cells, % viability

Row | Compound | viability at 28.5 h, 10 µM [%]
1 | O=C(NCCCC1CCOC1)c1cnn(-c2ccc(F)cc2)c1 (centres unmarked) [CBK283288] | 92.5
2 | COc1ccccc1CC(C)NC(=O)c1cc(C2CC2)nn1C (centres unmarked) [CBK283290] | 83.8
3 | Cc1ccc(CN(Cc2cnc(C)n2C)CC2CCCO2)o1 (centres unmarked) [CBK283291] | 100
4 | CC(C)N1CCC(CNC(=O)c2cc(C3CCCCC3)no2)CC1 [CBK283293] | 98.5
5 | CC(C)N1CCCC(CNC(=O)c2cc(C3CCCCC3)no2)C1 (centres unmarked) [CBK283294] | 97.2
6 | Cc1nccn1CCNC(=O)c1cc(C2CCCCC2)no1 [CBK283295] | 89.6
7 | CCCN1CCC(CNC(=O)c2cc(C3CCCCC3)no2)CC1 [CBK283297] | 98.2
8 | Cc1cccc(C2(O)CCN(C(=O)c3ccc4nc(C)[nH]c4c3)CC2)c1 [CBK283299] | 102
9 | Cc1nc2ccc(C(=O)N3CCC(O)(c4ccccc4C)CC3)cc2[nH]1 [CBK283300] | 95.8
10 | Cc1nc2ccc(C(=O)NCCCN3Cc4ccccc4C3)cc2[nH]1 [CBK283301] | 90.3
11 | Cc1ccc(C2(CN3CCN(Cc4ncc[nH]4)CC3)CC2)cc1 [CBK283306] | 95.9
12 | Cc1ccc(C2(CN3CCN(Cc4cncn4C)CC3)CC2)cc1 [CBK283308] | 107
13 | Cc1ccc(C(O)CN2CCC(O)(c3ccc(F)cc3)CC2)cc1 (centres unmarked) [CBK283309] | 94.5
14 | Cc1ccc(C(O)CN2CCC(O)(c3ccccc3F)CC2)cc1 (centres unmarked) [CBK283310] | 93.8
15 | OC(CN1CCC(O)(c2ccc(F)cc2)CC1)c1ccc(Cl)cc1 (centres unmarked) [CBK283311] | 89.6
16 | OC(CN1CCC(O)(c2ccccc2F)CC1)c1ccc(Cl)cc1 (centres unmarked) [CBK283312] | 87
17 | Cc1[nH]c2cc(C(=O)NCCn3nccc3C)ccc2c1C [CBK283313] | 92.8
18 | CCc1c(C(=O)NCCn2ccnc2C)[nH]c2ccc(F)cc12 [CBK283314] | 92.9
19 | Cc1c(C(=O)NCCCCn2ccnc2)oc2c(C)cccc12 [CBK283315] | 99.9
20 | CCCN(CC1CCCO1)C(=O)c1cnn(-c2ccc(F)cc2)c1 (centres unmarked) [CBK283317] | 89.7
21 | CCOC(=O)Cn1c(-c2ccc(OC)cc2)cc2cccnc21 [CBK283320] | 84.2
22 | CC(=O)NCCN1CCC(O)(c2ccc(C)cc2)CC1 [CBK283321] | 87.6
23 | Cc1ccc(C2(O)CCN(CCNC(=O)c3cccs3)CC2)cc1 [CBK283322] | 87.8

Row | Compound | viability at 28.5 h, 10 µM [%]
24 | Cc1ccc(-c2cc(C(=O)N(C)Cc3cccn3C)[nH]n2)o1 [CBK283324] | 100
25 | CC(=O)NC1CCN(CC2(c3ccc(F)cc3)CCCC2)CC1 [CBK283327] | 89
26 | NC[C@H]1CC[C@H](C(=O)N2CCC(c3ccncc3)CC2)CC1 [CBK283332] | 110
27 | CCOC(=O)C(C)n1nc(C)n2c(cc3sccc32)c1=O (centres unmarked) [CBK283333] | 67
28 | O=C1NC2(CCc3ccccc31)CCN(C(=O)c1ccncc1)C2 (centres unmarked) [CBK283336] | 90.9
29 | O=C1NC2(CCc3ccccc31)CCN(C(=O)c1ccccn1)C2 (centres unmarked) [CBK283337] | 96
30 | Cc1ncccc1C(=O)N1CCC2(CCc3ccccc3C(=O)N2)C1 (centres unmarked) [CBK283338] | 108
31 | O=C1CCCC[C@]2(CN(Cc3ccccc3)C[C@H]2c2ccccn2)N1 [CBK283340] | 82.6
32 | Cc1cccc([C@@H]2CN(Cc3ccccc3)C[C@]23CCCCC(=O)N3)n1 [CBK283341] | 97.1
33 | O=C1CCCC[C@]2(CN(Cc3ccccc3)C[C@H]2c2cccnc2)N1 [CBK283342] | 106
34 | COc1ccc2c(c1)C(=O)NC1(CC2)CCN(Cc2ccccc2)C1 (centres unmarked) [CBK283343] | 95.2
35 | Cc1ccc(CS(=O)(=O)N2CCC3(CC2)CNC(=O)C3)cc1 [CBK283344] | 88.5
36 | O=C(C1CCCCC1)N1CC(n2nc(-c3cccs3)ccc2=O)C1 [CBK283346] | 99.2
37 | O=C1CCC[C@]2(CN(Cc3ccccc3)C[C@H]2c2cccnc2)N1 [CBK283349] | 96.1
38 | O=C1CC2(CCN(S(=O)(=O)c3ccc(F)cc3)CC2)CN1 [CBK283353] | 93.9
39 | Cc1cc(F)ccc1S(=O)(=O)N1CCC2(CC1)CNC(=O)C2 [CBK283354] | 104
40 | Fc1ccc(CN2CCC(c3nnc4n3CCCCC4)CC2)cc1F [CBK283356] | 86.3
41 | O=C1CCC[C@]2(CN(C(=O)C3CC3)C[C@H]2c2ccccc2F)N1 [CBK283357] | 106
42 | COCCC(=O)N1C[C@@H](c2ccccc2F)[C@@]2(CCCC(=O)N2)C1 [CBK283360] | 90.4
43 | CCCC(=O)NC[C@H]1CC[C@H](c2nnc(-c3ccsc3)o2)CC1 [CBK283362] | 98.9
44 | O=C1CCC[C@]2(CN(C(=O)C3CC3)C[C@H]2c2ccc(F)c(F)c2)N1 [CBK283364] | 111
45 | O=C(C1CCC1)N1CCCC1c1nnc(-c2ccsc2)o1 (centres unmarked) [CBK283365] | 101
46 | CC(=O)N1C[C@H](c2cccc(C)c2)[C@H]2CN(C3CCCC3)CC[C@H]21 [CBK283369] | 88.7

Row | Compound | viability at 28.5 h, 10 µM [%]
47 | O=C(c1ccccc1)N1CCC(c2nnc(-c3ccsc3)o2)CC1 [CBK283371] | 88.5
48 | CC(=O)N1C[C@@H](c2cccc(C)c2)[C@@H]2CN(CC3CC3)CC[C@@H]21 [CBK283372] | 103
49 | COCc1ccc(C(=O)N2CCC(c3cc4ncccc4[nH]3)CC2)o1 [CBK283373] | 102
50 | O=C(Cc1cccc(F)c1)N1CCC(c2cc3ncccc3[nH]2)CC1 [CBK283374] | 100
51 | CCCC(=O)N1CCC(c2nnc(-c3ccsc3)o2)CC1 [CBK283377] | 85.5
52 | CC(C)(C)C(=O)N1CCC(c2nnc(-c3ccsc3)o2)CC1 [CBK283378] | 89.5
53 | O=C(CC1CCCC1)N1CCC(c2nnc(-c3ccsc3)o2)CC1 [CBK283381] | 106
54 | Cc1ccc(C2=CCN(CC(=O)Nc3ncc(C)s3)CC2)o1 [CBK283383] | 90
55 | CC(C)NC(=O)N[C@H]1CC[C@]2(CC1)CC(=O)c1ccccc1O2 [CBK283389] | 111
56 | O=C(c1ccccc1F)N1CCC(c2cc3ncccc3[nH]2)CC1 [CBK283391] | 86.5
57 | O=C(c1cc(C2CCCN(Cc3ccccc3)C2)no1)N1CCCC1 (centres unmarked) [CBK283395] | 89.7
58 | Cc1nc(C)c(C(=O)N2CCC(c3cc4ncccc4[nH]3)CC2)s1 [CBK283396] | 101
59 | O=S(=O)(c1ccccc1)N1CCC(c2cc3ncccc3[nH]2)CC1 [CBK283397] | 104
60 | Cn1cc2c(n1)[C@H]1CN(C(=O)c3cc(C(F)(F)F)nn3C)C[C@H]1C2 [CBK283400] | 93.8
61 | CC(C)(C)n1cc2c(n1)[C@H]1CN(C(=O)CN3CCCC3=O)C[C@H]1CC2 [CBK283401] | 89.2
62 | O=C(C1CCC1)N1CCC(c2nnc(-c3ccsc3)o2)CC1 [CBK283405] | 104
63 | Cc1cc(O)cc(C2CCCN(C(=O)c3ccc(F)c(F)c3)C2)n1 (centres unmarked) [CBK283406] | 105
64 | Cc1noc(-c2cn(C)nc2C2CCCCN2C(=O)C2CC2)c1C (centres unmarked) [CBK283410] | 96.9
65 | Cn1nccc1C(=O)N1CCCC(c2cc3ncccc3[nH]2)C1 (centres unmarked) [CBK283413] | 104
66 | O=C(Cc1ccc(F)cc1)N1CCCC(c2cc3ncccc3[nH]2)C1 (centres unmarked) [CBK283414] | 109
67 | COc1ccccc1CC(=O)N1CCCC(c2cc3ncccc3[nH]2)C1 (centres unmarked) [CBK283417] | 95.4
68 | Cc1c(C(=O)N2CCCC(c3cc4ncccc4[nH]3)C2)cnn1C (centres unmarked) [CBK283420] | 94.8
69 | Cc1ccc(CC(=O)N2CCCC2c2n[nH]cc2-c2ccncc2)cc1 (centres unmarked) [CBK283424] | 106

Row | Compound | viability at 28.5 h, 10 µM [%]
70 | COc1cccc(CC(=O)N2CCCC(c3cc4ncccc4[nH]3)C2)c1 (centres unmarked) [CBK283426] | 94.1
71 | O=C(C1CCCC1)N1CCCCC1c1n[nH]cc1-c1ccncc1 (centres unmarked) [CBK283427] | 90.4
72 | O=C(c1ccccc1F)N1CCCC1c1n[nH]cc1-c1ccncc1 (centres unmarked) [CBK283428] | 87.7
73 | CC(C)(C)CC(=O)N1CCCC1c1n[nH]cc1-c1ccncc1 (centres unmarked) [CBK283430] | 88.5
74 | O=C(C1CCCCC1)N1CCCC1c1n[nH]cc1-c1ccncc1 (centres unmarked) [CBK283434] | 87.2
75 | O=C(CCc1ccccc1)N1CCCC1c1n[nH]cc1-c1ccncc1 (centres unmarked) [CBK283436] | 91.4
76 | O=C(c1cccc(F)c1)N1CCCC1c1n[nH]cc1-c1ccncc1 (centres unmarked) [CBK283437] | 93.2
77 | CC(C)C(=O)N1C[C@H]2CCc3nnc(-c4ccccc4)n3[C@H]2C1 [CBK283438] | 88
78 | CCC(CC)C(=O)N1C[C@H]2CCc3nnc(-c4ccccc4)n3[C@H]2C1 [CBK283439] | 86.7
79 | CC(=O)Nc1ccc(Oc2cc(C)nc(C3CCCNC3)c2)cc1 (centres unmarked) [CBK283443] | 88.1
80 | Cc1cccc(CC(=O)N2CCCC2c2n[nH]cc2-c2ccncc2)c1 (centres unmarked) [CBK283447] | 90.7
81 | COCc1ccc(C(=O)N2CCC(c3cc4cnccc4[nH]3)CC2)cc1 [CBK283448] | 99.3
82 | COc1ccc(CC(=O)N2CCC(c3cc4cnccc4[nH]3)CC2)cc1 [CBK283451] | 87.2
83 | O=C(Cc1ccc(F)cc1)N1CCC(c2cc3cnccc3[nH]2)CC1 [CBK283454] | 85.7
84 | COc1cccc(CC(=O)N2CCC[C@@H](N)[C@@H]2c2ccccc2F)c1 [CBK283455] | 84.5
85 | COc1ccc(CC(=O)N2CCC[C@@H](N)[C@@H]2c2ccccc2F)cc1 [CBK283456] | 102
86 | COc1cccc(C(=O)N2CCC[C@@H](N)[C@@H]2c2ccccc2F)c1 [CBK283457] | 88.1
87 | COc1c(C)cccc1C(=O)N1CCC(c2cc3cnccc3[nH]2)CC1 [CBK283460] | 89.9
88 | CC(C)(C)OC(=O)N1CCC[C@]2(CCC(=O)N2)[C@H]1c1cccc(F)c1 [CBK283463] | 96.7
89 | Cc1csc(C(=O)N2CCC(c3cc(O)cc(C)n3)CC2)c1 [CBK283466] | 89
